For orientation: pIC50 means −log10 of the IC50, conventionally taken in molar units.

The values that follow come from US7566718B2, “Amine-linked pyridyl and phenyl substituted piperazine-piperidines with CXCR3 antagonist activity” (Schering Corporation, priority 2005, dated 2009).

pIC50: −log10 of the molar value. A value given as a limit tells only on which side of the number the result lay.

This assay deals with T1, human CXCR3 (N-delta 4) (Homo sapiens, UniProt P49682).
T1 construct: CD8 leader (N); Flag tag; expressed in transfected cells; membrane preparation
T1 sequence (P49682 5-368 limits assumed): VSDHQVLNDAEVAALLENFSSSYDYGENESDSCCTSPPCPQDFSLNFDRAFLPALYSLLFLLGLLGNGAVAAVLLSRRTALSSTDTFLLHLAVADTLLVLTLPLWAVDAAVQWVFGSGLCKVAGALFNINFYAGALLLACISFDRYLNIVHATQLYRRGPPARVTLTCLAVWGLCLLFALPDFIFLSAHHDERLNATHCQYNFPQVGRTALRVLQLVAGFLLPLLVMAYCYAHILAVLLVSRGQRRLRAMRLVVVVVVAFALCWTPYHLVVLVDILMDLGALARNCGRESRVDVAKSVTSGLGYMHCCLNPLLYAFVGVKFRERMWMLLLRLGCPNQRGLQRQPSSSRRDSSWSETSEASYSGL
Nature of the assay: Human CXCR3 (N-delta 4) scintillation proximity assay (SPA), [125I] IP-10 binding to Ba/F3-hCXCR3 membranes. The conditions noted are these: IC50 rating; [125I] IP-10 displacement, human CXCR3; read-out: IC50. An excerpt: The inventive compounds can readily be evaluated to determine activity at the CXCR3 receptors by known methods, such as, for example, development of a human CXCR3 (N-delta 4) Binding Assay.
The DNA encoding human CXCR3 was cloned by PCR using human genomic DNA (Promega, Madison, Wis.) as a template. The PCR primers were designed based on the published sequence of human orphan receptor GPR9 (1) with incorporated restriction sites, a Kozak consensus sequence, CD8 leader and Flag tag. The PCR product was subcloned into the mammalian expression vector pME18Sneo, a derivative of the SR-alpha expression vector (designated as pME18Sneo-hCXCR3 (N-delta 4).
IL-3-dependent mouse pro-B cells Ba/F3 were transfected by electroporation in 0.4 ml Dulbecco's PBS containing 4×10^6 cells with 20 μg of pME18Sneo-hCXCR3 (N-delta 4) plasmid DNA. Cells were pulsed at 400 Volts, 100 OHMs, 960 μFd. The transfected cells were under selection with 1 mg/ml G418 (Life Technologies, Gaithersburg, Md.). G418-resistant Ba/F3 clones were screened for CXCR3 expression by specific binding of [^125I] IP-10 (NEN Life Science Products, Boston, Mass.).
Ba/F3 cells expressing human CXCR3 (N-delta 4) were pelleted and resuspended in the lysis buffer containing 10 mM HEPES, pH 7.5 and Complete® protease inhibitors (1 tablet per 100 ml) (Boehringer Mannheim, Indianapolis, Ind.) at a cell density of 20×10^6 cells per ml. After 5 minute incubation on ice, cells were transferred to 4639 cell disruption bomb (Parr Instrument, Moline, Ill.) and applied with 1,500 psi of nitrogen for 30 minutes on ice. Large cellular debris was removed by centrifugation at 1,000×g. Cell membrane in the supernatant was sedimented at 100,000×g. The membrane was resuspended in the lysis buffer supplemented with 10% sucrose and stored at −80° C. Total protein concentration of the membrane was determined by BCA method from Pierce (Rockford, Ill.).
Human CXCR3 (N-Delta 4) Scintillation Proximity Assay (SPA):
For each assay point, 2 μg of membrane was preincubated for 1 hr with 300 μg wheat germ agglutinin (WGA) coated SPA beads (Amersham, Arlington Heights, Ill.) in the binding buffer (50 mM HEPES, 1 mM CaCl2, 5 mM MgCl2, 125 mM NaCl, 0.002% NaN3, 1.0% BSA) at room temperature. The beads were spun down, washed once, resuspended in the binding buffer and transferred to a 96-well Isoplate (Wallac, Gaithersburg, Md.). 25 pM of [^125I] IP-10 with tested compounds in a series of titration were added to start the reaction. After 3 hr reaction at room temperature, the amount of [^125I] IP-10 bound to the SPA beads was determined with a Wallac 1450 Microbeta counter.
Background: In a scintillation proximity assay essentially only radioactivity close to the scintillant gives light.
As for `CC[C@H]1CN(c2ncc(NS(C)(=O)=O)cc2Cl)CCN1C1CCN(C(=O)c2ccc(Cl)cc2)CC1` [Compound 51], the pIC50 was less than 7.00.

Take `CC[C@H]1CN(c2ncc(NS(C)(=O)=O)cc2Cl)CCN1C1CCN(Cc2ccc(Cl)cc2NS(C)(=O)=O)CC1` [Compound 52]: the pIC50 was less than 7.00.

As to `C[C@H]1CN(c2ncc(NS(C)(=O)=O)cc2Cl)CCN1C1CCN(Cc2ccc(C#N)cc2)CC1` [Compound 53], the pIC50 is less than 7.00.

Regarding `CC[C@H]1CN(c2ncc(NS(C)(=O)=O)cc2Cl)CCN1C1CCN([C@@H](C(=O)NC)c2ccc(Cl)cc2)CC1` [Compound 54], the pIC50 is less than 7.00.

Regarding `CC[C@H]1CN(c2ncc(NS(=O)(=O)NC(=O)OC(C)(C)C)cc2Cl)CCN1C1CCN(Cc2ccc(Cl)cc2F)CC1` [Compound 55], the pIC50 was less than 7.00.

For the molecule `COc1ccc(CN2CCC(N3CCN(c4ncc(NS(C)(=O)=O)cc4Cl)C[C@@H]3C)CC2)c(F)c1` [Compound 56], the pIC50 was less than 7.00.

Consider `C[C@H]1CN(c2ncc(NS(C)(=O)=O)cc2Cl)CCN1C1CCN(CCCc2ccc(Cl)cc2)CC1` [Compound 57], for which the pIC50 is less than 7.00.

Consider `CC[C@H]1CN(c2ncc(NS(C)(=O)=O)cc2Cl)CCN1C1CCN(Cc2cccs2)CC1` [Compound 58], for which the pIC50 is less than 7.00.

Consider `CC[C@H]1CN(c2ncc(NS(C)(=O)=O)cc2Cl)CCN1C1CCN([C@@H](C(N)=O)c2ccc(Cl)cc2)CC1` [Compound 59], for which the pIC50 was less than 7.00.

As for `CC[C@H]1CN(c2ncc(NS(C)(=O)=O)cc2Cl)CCN1C1CCN(Cc2ccsc2)CC1` [Compound 60], the negative logarithm of the IC50 (pIC50) was less than 7.00.

For the molecule `CC[C@H]1CN(c2ncc(N(S(C)(=O)=O)S(C)(=O)=O)cc2Cl)CCN1C1CCN(Cc2ccc(Cl)cc2F)CC1` [Compound 61], the negative-log IC50 (pIC50) is less than 7.00.

Regarding `CC[C@H]1CN(c2ncc(NS(C)(=O)=O)cc2Cl)CCN1C1CCN(C(=O)c2ccc(Cl)cc2O)CC1` [Compound 62], the pIC50 is less than 7.00.

For `CC[C@H]1CN(c2ncc(NS(C)(=O)=O)cc2Cl)CCN1C1CCN(C(=O)c2ccc(Cl)c(Cl)c2)CC1` [Compound 63], the pIC50 is less than 7.00.

Regarding `C[C@H]1CN(c2ncc(NS(C)(=O)=O)cc2Cl)CCN1C1CCN(Cc2ccc(C(F)(F)F)cc2F)CC1` [Compound 64], the negative-log IC50 (pIC50) is less than 7.00.

As for `CC[C@H]1CN(c2ncc(NS(C)(=O)=O)cc2Cl)CCN1C1CCN(Cc2ccc(Br)cc2OC)CC1` [Compound 65], the pIC50 is less than 7.00.

Take `C[C@H]1CN(c2ncc(NS(C)(=O)=O)cc2Cl)CCN1C1CCN(C(=O)c2ccc(Cl)cc2)CC1` [Compound 66]: the negative-log IC50 (pIC50) was less than 7.00.

Consider `CC[C@H]1CN(c2ncc(NS(C)(=O)=O)cc2Cl)CCN1C1CCN(Cc2ccc(O)cc2)CC1` [Compound 67], for which the pIC50 is less than 7.00.

`CC[C@H]1CN(c2ncc(NS(C)(=O)=O)cc2Cl)CCN1C1CCN(C(=O)c2ccc(OC(F)(F)F)cc2)CC1` [Compound 68]: the pIC50 was less than 7.00.

In the case of `CC[C@H]1CN(c2ncc(NS(C)(=O)=O)cc2Cl)CCN1C1CCN(C(=O)c2ccc(Br)s2)CC1` [Compound 69], the negative-log IC50 (pIC50) was less than 7.00.

`CC[C@H]1CN(c2ncc(Nc3c(NC4CC4)c(=O)c3=O)cc2Cl)CCN1C1CCN(Cc2ccc(Cl)cc2)CC1` [Compound 70]: the negative logarithm of the IC50 (pIC50) was more than 7.60.

In the case of `CC[C@H]1CN(c2ncc(Nc3c(NC4CC4)c(=O)c3=O)cc2Cl)CCN1C1CCN([C@H](CO)c2ccc(Cl)cc2)CC1` [Compound 71], the pIC50 is more than 7.60.

For the molecule `CC[C@H]1CN(c2ncc(Nc3c(NCCO)c(=O)c3=O)cc2Cl)CCN1C1CCN(Cc2ccc(Cl)cc2C(N)=O)CC1` [Compound 72], the pIC50 was more than 7.60.

Turning to `CC[C@H]1CN(c2ncc(Nc3c(NC4CC4)c(=O)c3=O)cc2Cl)CCN1C1CCN(Cc2ccc(Cl)cc2F)CC1` [Compound 73], the pIC50 is more than 7.60.

As to `CC[C@H]1CN(c2ncc(Nc3c(NC4CC4)c(=O)c3=O)cc2Cl)CCN1C1CCN(Cc2ccc(OC(F)F)cc2)CC1` [Compound 74], the pIC50 was more than 7.60.

For `CC[C@H]1CN(c2ncc(Nc3c(NCC(F)(F)F)c(=O)c3=O)cc2Cl)CCN1C1CCN(Cc2ccc(Cl)cc2F)CC1` [Compound 75], the pIC50 is more than 7.60.

`CC[C@H]1CN(c2ncc(Nc3c(N)c(=O)c3=O)cc2Cl)CCN1C1CCN(Cc2ccc(Cl)cc2F)CC1` [Compound 76]: the pIC50 was more than 7.60.

On to `CC[C@H]1CN(c2ncc(Nc3c(NC4CC4)c(=O)c3=O)cc2Cl)CCN1C1CCN(Cc2ccc(OC(F)(F)F)cc2)CC1` [Compound 77], for which the pIC50 was more than 7.60.

As for `CC[C@H]1CN(c2ncc(Nc3c(NC4CCC4)c(=O)c3=O)cc2Cl)CCN1C1CCN(Cc2ccc(Cl)cc2)CC1` [Compound 78], the pIC50 was more than 7.60.

For `CC[C@H]1CN(c2ncc(Nc3c(NC4CC4)c(=O)c3=O)cc2Cl)CCN1C1CCN(Cc2ccc(Br)cc2F)CC1` [Compound 79], the pIC50 was more than 7.60.

As for `CC[C@H]1CN(c2ncc(Nc3c(NC4CC4)c(=O)c3=O)cc2Cl)CCN1C1CCN(Cc2ccc(C#N)cc2)CC1` [Compound 80], the negative-log IC50 (pIC50) is more than 7.60.

`CC[C@H]1CN(c2ncc(Nc3c(NC4CC4)c(=O)c3=O)cc2Cl)CCN1C1CCN(Cc2ccc(Cl)cc2C(N)=O)CC1` [Compound 81]: the pIC50 was more than 7.60.

On to `CC[C@H]1CN(c2ccc(Nc3c(NC4CC4)c(=O)c3=O)cc2Cl)CCN1C1CCN(Cc2ccc(Cl)cc2F)CC1` [Compound 82], for which the negative-log IC50 (pIC50) is more than 7.60.

On to `CC[C@H]1CN(c2ncc(Nc3c(NC4CCC4)c(=O)c3=O)cc2Cl)CCN1C1CCN(Cc2ccc(OC(F)(F)F)cc2)CC1` [Compound 83], for which the pIC50 was more than 7.60.

As for `CC[C@H]1CN(c2ncc(Nc3c(C(C)C)c(=O)c3=O)cc2Cl)CCN1C1CCN(Cc2ccc(Cl)cc2F)CC1` [Compound 84], the pIC50 is more than 7.60.

Regarding `CC[C@H]1CN(c2ncc(Nc3c(NCC(F)(F)F)c(=O)c3=O)cc2Cl)CCN1C1CCN(C(CO)c2ccc(Cl)cc2)CC1` (some centres unmarked) [Compound 85], the pIC50 was more than 7.60.

On to `CC[C@H]1CN(c2ncc(Nc3c(C(C)C)c(=O)c3=O)cc2Cl)CCN1C1CCN(Cc2ccc(OC(F)(F)F)cc2)CC1` [Compound 86], for which the negative logarithm of the IC50 (pIC50) was more than 7.60.

As for `CC[C@H]1CN(c2ncc(Nc3c(NC4CCC4)c(=O)c3=O)cc2Cl)CCN1C1CCN(Cc2ccc(Cl)cc2F)CC1` [Compound 87], the pIC50 is more than 7.60.

Turning to `CC[C@H]1CN(c2ncc(Nc3c(C(C)C)c(=O)c3=O)cc2Cl)CCN1C1CCN(Cc2ccc(C#N)cc2)CC1` [Compound 88], the pIC50 is more than 7.60.

`C[C@@H]1CN(c2ncc(Nc3c(NCC(F)(F)F)c(=O)c3=O)cc2Cl)[C@@H](C)CN1C1CCN(Cc2ccc(Cl)cc2F)CC1` [Compound 89]: the negative logarithm of the IC50 (pIC50) was more than 7.60.

In the case of `C[C@@H]1CN(C2CCN(Cc3ccc(Cl)cc3F)CC2)[C@@H](C)CN1c1ncc(Nc2c(NC3CC3)c(=O)c2=O)cc1Cl` [Compound 90], the negative-log IC50 (pIC50) was more than 7.60.

For `CC[C@H]1CN(c2ncc(Nc3c(NC4CC4)c(=O)c3=O)cc2Cl)CCN1C1CCN(Cc2ccc(Cl)cc2C(=O)OC)CC1` [Compound 91], the pIC50 is more than 7.60.

`C[C@@H]1CN(C2CCN(Cc3ccc(Cl)cc3F)CC2)[C@@H](C)CN1c1ncc(Nc2c(NCC(F)(F)F)c(=O)c2=O)cc1Cl` [Compound 92]: the negative-log IC50 (pIC50) was more than 7.60.

As to `CC[C@H]1CN(c2ncc(Nc3c(N4CCC4)c(=O)c3=O)cc2Cl)CCN1C1CCN(Cc2ccc(Cl)cc2F)CC1` [Compound 93], the negative logarithm of the IC50 (pIC50) was more than 7.60.

As to `CC[C@H]1CN(c2ncc(Nc3c(N(C)C)c(=O)c3=O)cc2Cl)CCN1C1CCN(C(CO)c2ccc(Cl)cc2)CC1` (some centres unmarked) [Compound 94], the pIC50 is more than 7.60.
